Experimental data as given in ChEMBL document CHEMBL1212758 (Antimicrob Agents Chemother, 2010).

Assays:
[1] = system: Macacine alphaherpesvirus 1; assay: Antiviral activity against Macacine herpesvirus 1 isolate MP1 infected in african green monkey Vero cells by plaque reduction assay; format: functional, organism-based; details: Macacine alphaherpesvirus 1, isolate MP1, Vero
[2] = system: Macacine alphaherpesvirus 1; assay: Antiviral activity against Macacine herpesvirus 1 isolate MR3 infected in african green monkey Vero cells by plaque reduction assay; format: functional, organism-based; details: Macacine alphaherpesvirus 1, isolate MR3, Vero
[3] = system: Macacine alphaherpesvirus 1; assay: Antiviral activity against Macacine herpesvirus 1 isolate MR4 infected in african green monkey Vero cells by plaque reduction assay; format: functional, organism-based; details: Macacine alphaherpesvirus 1, isolate MR4, Vero
[4] = system: Macacine alphaherpesvirus 1; assay: Antiviral activity against Macacine herpesvirus 1 isolate MR9 infected in african green monkey Vero cells by plaque reduction assay; format: functional, organism-based; details: Macacine alphaherpesvirus 1, isolate MR9, Vero
[5] = system: Macacine alphaherpesvirus 1; assay: Antiviral activity against Macacine herpesvirus 1 isolate MR10 infected in african green monkey Vero cells by plaque reduction assay; format: functional, organism-based; details: Macacine alphaherpesvirus 1, isolate MR10, Vero
Human alphaherpesvirus 1 [6] = assay: Antiviral activity against HSV1 infected in african green monkey Vero cells by plaque reduction assay; format: functional, organism-based; details: Human alphaherpesvirus 1, Vero
[7] = system: Macacine alphaherpesvirus 1; assay: Antiviral activity against Macacine herpesvirus 1 isolate MR2 infected in african green monkey Vero cells by plaque reduction assay; format: functional, organism-based; details: Macacine alphaherpesvirus 1, isolate MR2, Vero
[8] = system: Macacine alphaherpesvirus 1; assay: Antiviral activity against Macacine herpesvirus 1 isolate MJ3 infected in african green monkey Vero cells by plaque reduction assay; format: functional, organism-based; details: Macacine alphaherpesvirus 1, isolate MJ3, Vero
[9] = system: Macacine alphaherpesvirus 1; assay: Antiviral activity against Macacine herpesvirus 1 isolate MC1 infected in african green monkey Vero cells by plaque reduction assay; format: functional, organism-based; details: Macacine alphaherpesvirus 1, isolate MC1, Vero
[10] = system: Macacine alphaherpesvirus 1; assay: Antiviral activity against Macacine herpesvirus 1 isolate MJ2 infected in african green monkey Vero cells by plaque reduction assay; format: functional, organism-based; details: Macacine alphaherpesvirus 1, isolate MJ2, Vero
[11] = system: Macacine alphaherpesvirus 1; assay: Antiviral activity against Macacine herpesvirus 1 isolate MJ1 infected in african green monkey Vero cells by plaque reduction assay; format: functional, organism-based; details: Macacine alphaherpesvirus 1, isolate MJ1, Vero
[12] = system: Macacine alphaherpesvirus 1; assay: Antiviral activity against Macacine herpesvirus 1 isolate A5 infected in african green monkey Vero cells by plaque reduction assay; format: functional, organism-based; details: Macacine alphaherpesvirus 1, isolate A5, Vero
[13] = system: Macacine alphaherpesvirus 1; assay: Antiviral activity against Macacine herpesvirus 1 isolate A6 infected in african green monkey Vero cells by plaque reduction assay; format: functional, organism-based; details: Macacine alphaherpesvirus 1, isolate A6, Vero
[14] = system: Macacine alphaherpesvirus 1; assay: Antiviral activity against Macacine herpesvirus 1 isolate MR1 infected in african green monkey Vero cells by plaque reduction assay; format: functional, organism-based; details: Macacine alphaherpesvirus 1, isolate MR1, Vero
[15] = system: Macacine alphaherpesvirus 1; assay: Antiviral activity against Macacine herpesvirus 1 isolate A1 infected in african green monkey Vero cells by plaque reduction assay; format: functional, organism-based; details: Macacine alphaherpesvirus 1, isolate A1, Vero
[16] = system: Macacine alphaherpesvirus 1; assay: Antiviral activity against Macacine herpesvirus 1 isolate A3 infected in african green monkey Vero cells by plaque reduction assay; format: functional, organism-based; details: Macacine alphaherpesvirus 1, isolate A3, Vero
[17] = system: Macacine alphaherpesvirus 1; assay: Antiviral activity against Macacine herpesvirus 1 isolate E2490 infected in african green monkey Vero cells by plaque reduction assay; format: functional, organism-based; details: Macacine alphaherpesvirus 1, isolate E2490, Vero
[18] = system: Macacine alphaherpesvirus 1; assay: Antiviral activity against Macacine herpesvirus 1 isolate MR11 infected in african green monkey Vero cells by plaque reduction assay; format: functional, organism-based; details: Macacine alphaherpesvirus 1, isolate MR11, Vero
[19] = system: Macacine alphaherpesvirus 1; assay: Antiviral activity against Macacine herpesvirus 1 isolate MR5 infected in african green monkey Vero cells by plaque reduction assay; format: functional, organism-based; details: Macacine alphaherpesvirus 1, isolate MR5, Vero
[20] = system: Macacine alphaherpesvirus 1; assay: Antiviral activity against Macacine herpesvirus 1 isolate MR7 infected in african green monkey Vero cells by plaque reduction assay; format: functional, organism-based; details: Macacine alphaherpesvirus 1, isolate MR7, Vero
[21] = system: Macacine alphaherpesvirus 1; assay: Antiviral activity against Macacine herpesvirus 1 isolate A4 infected in african green monkey Vero cells by plaque reduction assay; format: functional, organism-based; details: Macacine alphaherpesvirus 1, isolate A4, Vero
[22] = system: Macacine alphaherpesvirus 1; assay: Antiviral activity against Macacine herpesvirus 1 isolate A2 infected in african green monkey Vero cells by plaque reduction assay; format: functional, organism-based; details: Macacine alphaherpesvirus 1, isolate A2, Vero
[23] = system: Macacine alphaherpesvirus 1; assay: Antiviral activity against Macacine herpesvirus 1 isolate MC2 infected in african green monkey Vero cells by plaque reduction assay; format: functional, organism-based; details: Macacine alphaherpesvirus 1, isolate MC2, Vero
[24] = system: Macacine alphaherpesvirus 1; assay: Antiviral activity against thymidine kinase deficient Macacine herpesvirus 1 isolate E2490 infected in african green monkey Vero cells by plaque reduction assay; format: functional, organism-based; details: Macacine alphaherpesvirus 1, isolate E2490, Vero
Human alphaherpesvirus 2 [25] = assay: Antiviral activity against HSV2 infected in african green monkey Vero cells by plaque reduction assay; format: functional, organism-based; details: Human alphaherpesvirus 2, Vero
[26] = system: Macacine alphaherpesvirus 1; assay: Antiviral activity against Macacine herpesvirus 1 isolate MR8 infected in african green monkey Vero cells by plaque reduction assay; format: functional, organism-based; details: Macacine alphaherpesvirus 1, isolate MR8, Vero
[27] = system: Macacine alphaherpesvirus 1; assay: Antiviral activity against Macacine herpesvirus 1 isolate MR6 infected in african green monkey Vero cells by plaque reduction assay; format: functional, organism-based; details: Macacine alphaherpesvirus 1, isolate MR6, Vero
[28] = system: Macacine alphaherpesvirus 1; assay: Antiviral activity against Macacine herpesvirus 1 infected in rabbits assessed as survival after 5 months; format: functional
[29] = system: Macacine alphaherpesvirus 1; assay: Ratio of acyclovir EC50 to compound EC50 for Macacine herpesvirus 1 isolate MR7 infected in african green monkey Vero cells; format: functional
[30] = system: Macacine alphaherpesvirus 1; assay: Ratio of acyclovir EC50 to compound EC50 for Macacine herpesvirus 1 isolate A5 infected in african green monkey Vero cells; format: functional
[31] = system: Macacine alphaherpesvirus 1; assay: Ratio of acyclovir EC50 to compound EC50 for Macacine herpesvirus 1 isolate MR9 infected in african green monkey Vero cells; format: functional
[32] = system: Macacine alphaherpesvirus 1; assay: Ratio of acyclovir EC50 to compound EC50 for Macacine herpesvirus 1 isolate MR8 infected in african green monkey Vero cells; format: functional
[33] = system: Macacine alphaherpesvirus 1; assay: Ratio of acyclovir EC50 to compound EC50 for Macacine herpesvirus 1 isolate MR5 infected in african green monkey Vero cells; format: functional
[34] = system: Macacine alphaherpesvirus 1; assay: Ratio of acyclovir EC50 to compound EC50 for Macacine herpesvirus 1 isolate E2490 infected in african green monkey Vero cells; format: functional
[35] = system: Macacine alphaherpesvirus 1; assay: Ratio of acyclovir EC50 to compound EC50 for Macacine herpesvirus 1 isolate MJ2 infected in african green monkey Vero cells; format: functional
[36] = system: Macacine alphaherpesvirus 1; assay: Ratio of acyclovir EC50 to compound EC50 for Macacine herpesvirus 1 isolate A4 infected in african green monkey Vero cells; format: functional
[37] = system: Macacine alphaherpesvirus 1; assay: Ratio of acyclovir EC50 to compound EC50 for Macacine herpesvirus 1 isolate MR10 infected in african green monkey Vero cells; format: functional
Human alphaherpesvirus 2 [38] = assay: Ratio of acyclovir EC50 to compound EC50 for HSV 2 infected in african green monkey Vero cells; format: functional
[39] = system: Macacine alphaherpesvirus 1; assay: Ratio of acyclovir EC50 to compound EC50 for Macacine herpesvirus 1 isolate MJ3 infected in african green monkey Vero cells; format: functional
[40] = system: Macacine alphaherpesvirus 1; assay: Ratio of acyclovir EC50 to compound EC50 for Macacine herpesvirus 1 isolate MR1 infected in african green monkey Vero cells; format: functional
[41] = system: Macacine alphaherpesvirus 1; assay: Ratio of acyclovir EC50 to compound EC50 for Macacine herpesvirus 1 isolate MR11 infected in african green monkey Vero cells; format: functional
[42] = system: Macacine alphaherpesvirus 1; assay: Ratio of acyclovir EC50 to compound EC50 for Macacine herpesvirus 1 isolate A2 infected in african green monkey Vero cells; format: functional
Human alphaherpesvirus 1 [43] = assay: Ratio of acyclovir EC50 to compound EC50 for HSV1 infected in african green monkey Vero cells; format: functional
[44] = system: Macacine alphaherpesvirus 1; assay: Ratio of acyclovir EC50 to compound EC50 for Macacine herpesvirus 1 isolate MJ1 infected in african green monkey Vero cells; format: functional
[45] = system: Macacine alphaherpesvirus 1; assay: Ratio of acyclovir EC50 to compound EC50 for Macacine herpesvirus 1 isolate A6 infected in african green monkey Vero cells; format: functional
[46] = system: Macacine alphaherpesvirus 1; assay: Ratio of acyclovir EC50 to compound EC50 for Macacine herpesvirus 1 isolate MC1 infected in african green monkey Vero cells; format: functional
[47] = system: Macacine alphaherpesvirus 1; assay: Ratio of acyclovir EC50 to compound EC50 for Macacine herpesvirus 1 isolate MR3 infected in african green monkey Vero cells; format: functional
[48] = system: Macacine alphaherpesvirus 1; assay: Ratio of acyclovir EC50 to compound EC50 for Macacine herpesvirus 1 isolate A1 infected in african green monkey Vero cells; format: functional
[49] = system: Macacine alphaherpesvirus 1; assay: Ratio of acyclovir EC50 to compound EC50 for Macacine herpesvirus 1 isolate MR2 infected in african green monkey Vero cells; format: functional
[50] = system: Macacine alphaherpesvirus 1; assay: Ratio of acyclovir EC50 to compound EC50 for Macacine herpesvirus 1 isolate MP1 infected in african green monkey Vero cells; format: functional
[51] = system: Macacine alphaherpesvirus 1; assay: Ratio of acyclovir EC50 to compound EC50 for Macacine herpesvirus 1 isolate MR6 infected in african green monkey Vero cells; format: functional
[52] = system: Macacine alphaherpesvirus 1; assay: Ratio of acyclovir EC50 to compound EC50 for Macacine herpesvirus 1 isolate MC2 infected in african green monkey Vero cells; format: functional
[53] = system: Macacine alphaherpesvirus 1; assay: Ratio of acyclovir EC50 to compound EC50 for Macacine herpesvirus 1 isolate MR4 infected in african green monkey Vero cells; format: functional
[54] = system: Macacine alphaherpesvirus 1; assay: Ratio of acyclovir EC50 to compound EC50 for Macacine herpesvirus 1 isolate A3 infected in african green monkey Vero cells; format: functional

Nc1ncnc2c1ncn2[C@@H]1O[C@H](CO)[C@@H](O)[C@@H]1O [VIDARABINE]
26.5 µM: EC50 [1] | EC50 [2] | EC50 [3] | EC50 [4] | EC50 [5] | EC50 (Human alphaherpesvirus 1 [6]) | EC50 [7] | EC50 [8] | EC50 [9] | EC50 [10] | EC50 [11] | EC50 [12] | EC50 [13] | EC50 [14] | EC50 [15] | EC50 [16] | EC50 [17] | EC50 [18] | EC50 [19] | EC50 [20] | EC50 [21] | EC50 [22] | EC50 [23] | EC50 (Human alphaherpesvirus 2 [25]) | EC50 [26] | EC50 [27]
37.8 µM: EC50 [24]

Nc1nc2c(ncn2COC(CO)CO)c(=O)[nH]1 [GANCICLOVIR]
19.3 µM: EC50 (Human alphaherpesvirus 1 [6]) | EC50 [9] | EC50 (Human alphaherpesvirus 2 [25])
100%: Activity [28]

Nc1nc(=O)n([C@@H]2O[C@H](CO)[C@@H](O)[C@@H]2F)cc1Br
10: Ratio EC50 [29] | Ratio EC50 [30] | Ratio EC50 [31] | Ratio EC50 [32] | Ratio EC50 [33] | Ratio EC50 [34] | Ratio EC50 [35] | Ratio EC50 [36] | Ratio EC50 [37] | Ratio EC50 (Human alphaherpesvirus 2 [38]) | Ratio EC50 [39] | Ratio EC50 [40] | Ratio EC50 [41] | Ratio EC50 [42] | Ratio EC50 (Human alphaherpesvirus 1 [43]) | Ratio EC50 [44] | Ratio EC50 [45] | Ratio EC50 [46] | Ratio EC50 [47] | Ratio EC50 [48] | Ratio EC50 [49] | Ratio EC50 [50] | Ratio EC50 [51] | Ratio EC50 [52] | Ratio EC50 [53] | Ratio EC50 [54]
